As usually defined, the IC50 is the midpoint of a concentration-inhibition curve. Low values mean greater potency, high ones weaker potency. In general, Kd refers to the equilibrium constant for the complex coming apart. Read a high Kd as lower affinity.

Three compounds from patent US20020147136A1, “Compounds for targeting endothelial cells, compositions containing the same and methods for their use” (priority 2000, published 2002) can be followed below.

Test [1] relates to Human Umbilical Vein Endothelial Cells (HUVECS).
Experimental: The ability of compositions comprising a TKPPR monomer and a TKPPR multimer to inhibit ^125I-VEGF binding to endothelial cells was evaluated using HUVECs.
Test [2] relates to NP-1/Fc. Put plainly: Inhibition of 125I-VEGF165 binding to NP-1/Fc. As for the experimental part: The ability of various compositions comprising TKPPR monomers or multimers to inhibit ^125I-VEGF binding to NP-1 was evaluated using NP-1/Fc. Competitive binding assays with microtiter plates coated with NP-1/Fc (R&D sytems) were performed using ^125I-VEGF165 as radioligand (Amersham Pharmacia Biotech Cat. No. IM274, Specific Activity: 1000-2500 Ci/mmol). […] Plates (Nunc MaxiSorp white opaque Microtiter plate [C-bottom, 437796]) were coated by incubating the wells with 75 µl of a solution containing 3 μlg/mL NP-1/Fc in D-PBS/0.1% NaAzide overnight at 4° C. after covering with sealing tape (Dynex, VWR Cat. No. 62402-931). […] All points were derived from triplicate wells, and for each set of replicates in NP-1/Fc-coated wells, a companion set in the absence of the receptor was included. For competitive binding, a series of unlabelled competitor concentrations were prepared in a 250 pM solution of ^1251-VEGF165 in assay buffer Solutions were added to 1.2 ml polypropylene tubes conforming to the microtiter format (Costar Cat. No. 29442-602), and transferred from these tubes to microtiter wells, without further dilution, using a multichannel pipettor. After addition of the appropriate solutions, microtiter plates were incubated at 4° C. for 2 hours. […] The plates were blotted dry and 25 μl deionized water and 100 μl scintillation fluid (Optiphase SuperMix, Wallac) were added to each well. Plates were agitated using a Plate Shaker (Hyperion, Cat. No. 4030-100F) for 3-5 minutes and were then counted using a Microplate Scintillation Counter (Wallac Microbeta Trilux) A set of serially diluted 125I-VEGF165 standard wells ranging from 200 to 0.04 pM were included with each experiment to aid in quantification of the amount of radiolabel bound.

Test [3] addresses Neuropilin-1/Fc. Put plainly: Fluorescence polarization binding to NP-1/Fc. As to conditions: Oregon Green-labeled ligand 5-20 nM, 37° C., D-PBS pH 7.4; different experiments. As for the experimental part:
The ability of various compositions comprising TKPPR monomers or multimers to bind to NP-1/Fc and KDR-Fc was evaluated using FP. The binding studies of various Oregon Green (OG)-labeled compounds comprising TKPPR monomers or multimers and related compounds with Neuropilin-1/Fc, and KDR-Fc (both from R&D Systems), were carried out at 37° C. in D-PBS buffer (pH 7.4). FP values (mP) for each substrate was measured by titrating the ligand (5-20 nM) with receptor protein using a Jolley Research and Consulting FPM-1 fluorescence Polarization analyzer. In each of these experiments the observed polarization values were plotted against receptor concentration. The mP values for 100% binding of tracer labeled ligand to receptor protein was calculated using the software provided by the vendor.
A general note: In fluorescence polarisation assays a small probe gives low polarisation when free and higher when bound to something large.

The target of test [4] is T1, KDR-Fc (Homo sapiens, UniProt P35968).
T1 construct: purchased R&D Systems
T1 sequence (P35968 with tags, fused parts or gaps limits assumed): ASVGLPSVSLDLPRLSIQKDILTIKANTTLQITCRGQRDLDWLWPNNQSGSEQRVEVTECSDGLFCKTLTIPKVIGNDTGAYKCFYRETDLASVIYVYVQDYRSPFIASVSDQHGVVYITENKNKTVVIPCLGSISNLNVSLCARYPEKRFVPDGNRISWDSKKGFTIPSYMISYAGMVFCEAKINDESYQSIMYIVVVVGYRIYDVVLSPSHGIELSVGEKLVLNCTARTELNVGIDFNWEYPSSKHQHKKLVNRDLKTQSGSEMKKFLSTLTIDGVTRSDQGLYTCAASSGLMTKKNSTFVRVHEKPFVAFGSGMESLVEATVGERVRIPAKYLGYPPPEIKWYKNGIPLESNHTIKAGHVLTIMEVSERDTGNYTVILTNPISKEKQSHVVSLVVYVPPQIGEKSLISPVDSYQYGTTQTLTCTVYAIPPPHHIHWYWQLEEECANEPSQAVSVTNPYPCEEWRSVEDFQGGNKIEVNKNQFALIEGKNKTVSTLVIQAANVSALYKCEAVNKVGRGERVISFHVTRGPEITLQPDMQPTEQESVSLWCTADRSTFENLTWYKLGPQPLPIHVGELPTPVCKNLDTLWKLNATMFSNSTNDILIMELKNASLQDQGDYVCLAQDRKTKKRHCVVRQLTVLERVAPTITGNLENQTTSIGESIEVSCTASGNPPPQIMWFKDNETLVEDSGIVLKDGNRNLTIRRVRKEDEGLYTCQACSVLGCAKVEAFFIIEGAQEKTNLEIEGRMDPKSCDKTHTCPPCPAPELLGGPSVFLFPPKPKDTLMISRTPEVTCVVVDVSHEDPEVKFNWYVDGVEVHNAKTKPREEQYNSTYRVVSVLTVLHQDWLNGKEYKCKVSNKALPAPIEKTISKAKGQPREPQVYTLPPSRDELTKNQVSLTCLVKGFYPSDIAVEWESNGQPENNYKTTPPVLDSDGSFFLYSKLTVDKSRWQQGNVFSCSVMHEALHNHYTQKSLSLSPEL
Put plainly: Inhibition of 125I-VEGF165 binding to KDR-Fc. As to conditions: at the highest concentrations tested.

In test [5] the test system is Human aortic endothelial cells (HAEC). Put plainly: TKPPR-conjugated fluorescent bead binding to HAEC, static. The class given is cell-based. As for the experimental part:
Human aortic endothelial cells (HAEC) from Biowhittaker were grown as monolayers in EGM-MV medium from Biowhittaker according to the supplier's instructions.
Briefly, a frozen cryovial of cells (500,000 cells in about 1 mL) was thawed for 2-3 minutes in a 37° C. water bath and cells were seeded into a T-75 flask coated with collagen I (commercially available) containing 15 mL EGM-MV of medium pre-equilibrated with 5% CO2 atmosphere. Cells were incubated in a standard tissue culture incubator at 37° C. HAEC were subcultured for up to 3 additional passages, using the following protocol:
For binding studies and characterization, pelleted cells were diluted to a concentration of 16,560 cells per mL, and 0.5 mL was seeded into each well of an 8-well chamber slide (Collagen I-coated, Becton Dickinson) to generate a seeding density of 12,000 cells/cm^2. Cells seeded into chamber slides were used for assays after 7 to 10 days, and were not further propagated.
TKPPR (see preparation described in the Example 1) was attached to red fluorescent carboxylate-modified FluoSpheres™ (Molecular Probes), which are 2.0 μm microspheres provided at 3.9×10^9 particles/mL of distilled water. 1.0 mg TKPPR was combined with 0.5 mLof 50 mM MES buffer (2-[N-Morpholino]ethanesulfonic acid, (commercially available), pH 6.0 and 0.2 mL FluoSpheres (7.8×10^8 spheres) in a 1.5 mL Eppendorf snap top, polypropylene centrifuge tube and rotated for 30 min at room temperature (RT). Then 2.8 mg EDAC (1-ethyl-3-(3-dimethylaminopropyl)carbodiimide hydrochloride, (commercially available) in 0.025 mL MES was added and the tube was rotated for 2 h at RT. Following the addition of 0.005 mL 1 N NaOH and 5.7 mg glycine in 0.025 mL MES, the tube was rotated for 30 min more at RT. The beads were then washed by employing three cycles of centrifugation at 14,000 rpm (20,800× g) in an Eppendorf 5417R centrifuge for 15 min, discarding the resulting supernatant, and resuspending in D-PBS. Storage was at 4° C. in 0.4 mL DPBS containing 0.05% NaN3 (final bead concentration was about 1.95×10^9/mL).
Final bead concentration was 1.95×10^7/mL. […]
Bead binding and localization was assessed at 200× magnification using the same microscopy equipment as described above. […] Finally, the processed images were inverted into black on a white background using Scion Image software (version beta 3b) and the integrated density was measured with the whole field selected.
The incubation time was decreased to 15 min on an orbital shaker, and the washes (3) were carried out using D-PBS containing 0.1% Tween 20 (Sigma). […] TKPPR-bead binding was quantitated in three fields, the other bead types were quantitated in one field only. Bound beads were quantitated by manual counting.

Test [6] has as its system HAEC. Put plainly: TKPPR-bead binding to endothelial cells under flow. The class given is cell-based, human. As to conditions: flow 1.91 mL/min, 37° C. As for the experimental part: Circular 40 mm diameter glass coverslips (Bioptechs, Cat No. 40-1313-0319) were first derivative by dipping in 3-aminopropyltriethoxysilane (Pierce, Cat No. 80370ZZ), 20% in acetone (HPLC grade, Sigma Aldrich Cat No. 27,072-5), rinsed in acetone, and air-dried. After autoclaving, the derivatized coverslips were placed into 60 mm round, sterile culture dishes, one coverslip per dish. Five mL of a Collagen I solution (Becton Dickinson, Cat No. 40236), 41.6 μg/mL in 20 mM acetic acid (adjusted to pH 6.7 with NaOH), was added to each coverslip-containing dish. After 15 min, 0.25 mL of 11.5 mg/mL bis(sulfosuccinimidyl) suberate (Pierce, Cat No. 21580ZZ) was added to each dish and mixed in by swirling. After a 105-minute incubation, the dishes were drained and 5 mL of sterile TBS (20 mM Tris-HCl, pH 7.5, 140 mM NaCl) was added to each dish. […]
Coverslips containing confluent HAEC were mounted into a Bioptechs FCS2 parallel plate flow cell mounted on an Olympus IMT-2 inverted microscope. […] Wall shear stress T, in dynes/cm^2, was calculated using the equation (Lawrence et al., Blood 75:227-237, 1990): [formula]
Bead binding of equal numbers of red fluorescent beads conjugated with TKPPR and green fluorescent beads conjugated with glycine was monitored after increasing lengths of perfusion and variable lengths of subsequent washing with the same solution lacking microspheres.

With `C/C(=N\O)C(C)(C)NOCCNC(C)(C)/C(CCNC(=O)CCCCCC(=O)NCC(=O)N(CCC(=O)NCC(=O)N(CCC(=O)NCCOCCOCC(=O)N[C@H](C(=O)N[C@@H](CCCCN)C(=O)N1CCC[C@H]1C(=O)N1CCC[C@H]1C(=O)N[C@@H](CCCNC(=N)N)C(=O)O)[C@@H](C)O)CCC(=O)NCCOCCOCC(=O)N[C@H](C(=O)N[C@@H](CCCCN)C(=O)N1CCC[C@H]1C(=O)N1CCC[C@H]1C(=O)N[C@@H](CCCNC(=N)N)C(=O)O)[C@@H](C)O)CCC(=O)NCC(=O)N(CCC(=O)NCCOCCOCC(=O)N[C@H](C(=O)N[C@@H](CCCCN)C(=O)N1CCC[C@H]1C(=O)N1CCC[C@H]1C(=O)N[C@@H](CCCNC(=N)N)C(=O)O)[C@@H](C)O)CCC(=O)NCCOCCOCC(=O)N[C@H](C(=O)N[C@@H](CCCCN)C(=O)N1CCC[C@H]1C(=O)N1CCC[C@H]1C(=O)N[C@@H](CCCNC(=N)N)C(=O)O)[C@@H](C)O)=N/O` [BRU-326], the IC50 came out at 10000 nM in test [1] and 130 nM in test [2] (250 pM 125I-VEGF165, 4° C., 2 hours). In addition, the “fold more potent than the monomer” value in test [2] fell in the range of 230 to 330 fold. Moreover, the equilibrium dissociation constant (Kd) in test [3] is 25 to 50 nM. Further, the “inhibition of 125I-VEGF165 binding to KDR” value in test [4] is given as “none”.

Consider GRGDSP, for which the “Integrated density of bound beads” value in test [5] (Experiment 1, 1.95×10^7 beads/mL, 30 min, HAEC monolayer) was determined as 28.59 arbitrary units. The “Number of bound beads” value in test [5] (Experiment 2, 4.9×10^6 beads/mL, 15 min, manual counting, TKPPR average of three fields, others one field) is recorded as 2.

As for Glycine, the “Beads bound at 1.53 dynes/cm^2” value in test [6] is 10.
